What all share (experiment): growth of human tumour cells (NCI), 48 h
Assay [1] has as its system MCF7 breast.
Assay [2] relates to RXF 393 renal.
Assay [3] relates to SN12C renal.
The subject of assay [4] is CAKI-1 renal.
For assay [5], the system named is SK-MEL-28 melanoma.
For assay [6], the system named is SNB-19 CNS.
Assay [7] has as its system UACC-257 melanoma.
Assay [8] deals with SK-MEL-5 melanoma.
In assay [9] the test system is SR leukemia.
Assay [10] relates to K-562 leukemia.

Molecules are shown by their SMILES. Where “and” joins values, the source holds several entries; their conditions need not be identical. Identical values can stand only once.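 In this assay, cells in 96-well plates receive the compound at five concentrations for 48 hours. Endpoints are linearly interpolated between the surrounding concentrations. GI50: concentration for 50% inhibition of growth. The concentration for full growth arrest is given as TGI.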 A value given as a limit tells only on which side of the number the result lay.

In the case of `COc1cc2c(c(OC)c1OC)-c1c(cc3c(c1OC)OCO3)CC(C)C(C)(O)C2OC(=O)c1ccccc1` (stereo not given), the TGI is more than 100 µM in assay [1]; 86.2 µM in [2]; more than 100 µM in [3]; more than 100 µM in assay [4]; more than 100 µM in assay [5]; more than 100 µM in assay [6]. In addition, the TGI in assay [7] is more than 100 µM; in [8], more than 100 µM; in assay [9], 55.9 µM; in assay [10], more than 100 µM.
For the compound `CCOC1OC(=O)[C@H]2[C@@H]1[C@@H]1CC[C@H]2O1` (stereo not given in full), the GI50 in [1] is more than 100 µM; in assay [2] it was more than 100 µM; in [3], more than 100 µM; in assay [4] it was more than 100 µM; in [5], 0.378 µM; in assay [6], more than 100 µM. Moreover, the GI50 in assay [7] was more than 100 µM; in assay [8] it was more than 100 µM; in assay [9], 33.8 µM; in assay [10], more than 100 µM. The TGI in assay [1], in [2], in assay [3], in assay [4], in [5] and in [6] was more than 100 µM throughout. In addition, the TGI in [7], in assay [8], in assay [9] and in [10] was more than 100 µM in each case.
On to `Cc1oc2c(c1C(=O)N1CC[C@@H](N)C1)C(=O)c1c(c(O)c3ccccc3c1O)C2=O`, for which the GI50 in [1] was 1.01 µM; in [2], 2.53 µM; in [3], 1.3 µM; in assay [4] it was 0.611 µM; in [5], 7.47 µM; in assay [6], 2.45 µM. The GI50 was 3.97 µM in assay [8], 0.224 µM in assay [9] and 1.86 µM in assay [10]. For the same compound, the TGI was 4.9 µM in [1]; 11.3 µM in [2]; 11 µM in assay [3]; 11.4 µM in [4]; 20.9 µM in [5]; 15.7 µM in assay [6]. Besides, the TGI was found to be 16.5 µM in [8], 3.48 µM in [9] and 9 µM in assay [10].
In the case of `COc1cccc2c1[C@H]1CO[C@H]3C4C[C@H](C(=O)O)C([C@@H](C2)N13)N4C` (stereo not given in full), the GI50 was 0.296 µM in assay [1]; 0.136 µM in assay [2]; 0.884 µM in assay [3]; 2.17 µM and 2.9 µM in [4]; 0.621 µM in assay [5]; 3.81 µM in assay [6]. Further, the GI50 in assay [7] is 0.703 µM; in assay [8], 0.588 µM; in assay [10], 0.397 µM. Further, the TGI in assay [1] is 10 µM; in assay [2], 2.42 µM and 0.576 µM; in assay [3] it was 8.32 µM and > 35.8 µM; in [4], 6.06 µM and 28.8 µM; in assay [5] it was 4.91 µM and 1.65 µM; in [6], more than 100 µM. Besides, the TGI in assay [7] is 5.15 µM and 1.81 µM; in assay [8], 4.31 µM and 1.23 µM; in [9], 8.55 µM.
With `Cn1nnc2c(C(N)=O)ncn2c1=O`, the TGI in assay [1], in assay [2], in [3], in assay [4], in [5] and in [6] was more than 100 µM in each case. Also, the TGI in [7], in assay [8], in [9] and in assay [10] was more than 100 µM throughout.
In the case of `Oc1c(Cl)cc(Cl)c2cccnc12`, the GI50 was 3.75 µM in assay [1]; 2.25 µM in assay [2]; 3.39 µM in assay [3]; 2.71 µM in [4]; 3.96 µM in assay [5]; 3.73 µM in assay [6]. The GI50 in assay [7] is 2.26 µM; in [8], 1.76 µM; in [9] it was 2.68 µM; in assay [10], 3.77 µM. For the same compound, the TGI in assay [1] stood at 13.8 µM; in assay [2] it was 7.91 µM; in [3] it was 51.8 µM; in [4], 19 µM; in assay [5] it was 29.4 µM; in [6], 24.6 µM. Further, the TGI was 7.24 µM in [7], 3.59 µM in assay [8], 9.48 µM in assay [9] and more than 100 µM in assay [10].
In the case of `CN(c1ccc(C#N)c(Cl)c1)C1CCC(NC(=O)c2ccc(N3CCN(C4CN(c5ccc6c(c5)C(=O)N(C5CCC(=O)NC5=O)C6=O)C4)CC3)cc2)CC1` (stereo not given), the GI50 in [1], in [2], in [3], in assay [4], in assay [5] and in assay [6] was more than 100 µM each time. For the same compound, the GI50 in assay [7], in [8], in assay [9] and in assay [10] was more than 100 µM in each case. The TGI in [1], in assay [2], in assay [3], in [4], in assay [5] and in [6] was more than 100 µM throughout. Moreover, the TGI in assay [7], in assay [8], in assay [9] and in [10] was more than 100 µM throughout.
For the compound `O=C1CSC(c2ccccc2O)N1c1nnc(Cn2ccnc2)o1` (stereo not given), the GI50 in assay [1] was 5.43 µM; in assay [2], 22.7 µM; in assay [3], 12.8 µM; in assay [4], 2.19 µM; in [5] it was 13.8 µM; in assay [7], 16 µM. In addition, the values for the GI50 in [8], in assay [9] and in assay [10] were 7.4 µM, 2.93 µM and 4.36 µM, respectively. For the same compound, the TGI in assay [1] was 23.5 µM; in assay [2], more than 100 µM; in [3], more than 100 µM; in assay [4], 10.2 µM; in [5], 41.2 µM; in [7] it was 40.6 µM. Besides, the figures for the TGI in assay [8], in assay [9] and in assay [10] were 20.2 µM, more than 100 µM and more than 100 µM, respectively.
For `COc1ccc(-c2ccc(/C=N/n3c(COc4ccccc4Cl)n[nH]c3=S)o2)c([N+](=O)[O-])c1`, the GI50 was 18.7 µM in [1]; 15.5 µM in [2]; 26.4 µM in assay [3]; 24.6 µM in [4]; 55 µM in [5]; 42.2 µM in assay [6]. Besides, the results for the GI50 in assay [7], in assay [9] and in assay [10] were 28.4 µM, 34.8 µM and 34.1 µM, respectively. The TGI was 40.5 µM in assay [1]; 52.1 µM in [2]; 82.4 µM in assay [3]; 59.3 µM in assay [4]; more than 100 µM in assay [5]; more than 100 µM in [6]. Further, the results for the TGI in assay [7], in assay [9] and in assay [10] were 63.5 µM, 76.7 µM and more than 100 µM, respectively.
Take `O=C(Nc1ccccc1Cl)c1cccc(NC2=C(Cl)C(=O)N(Cc3ccccc3)C2=O)c1`: the GI50 is 11.6 µM in assay [1]; 52.5 µM in assay [2]; 23.2 µM in assay [4]; 18.6 µM in [5]; 60.5 µM in assay [6]; 24.3 µM in assay [7]. Further, the results for the GI50 in assay [8], in assay [9] and in assay [10] were 14.1 µM, 1.12 µM and 2.67 µM, respectively. The TGI in assay [1] was 33.4 µM; in [2], more than 100 µM; in assay [4] it was 66.9 µM; in [5], more than 100 µM; in [6] it was more than 100 µM; in assay [7], more than 100 µM. The TGI in [8] is 51.4 µM; in assay [9], 3.39 µM; in [10], 35.3 µM.
In the case of `COc1ccc2c(c1)/C(=C\c1c[nH]c3ccc(OC)cc13)C(=O)N2`, the GI50 is 2.65 µM in [1]; 2.91 µM in [2]; 3.07 µM in [3]; 2.13 µM in assay [4]; 4.56 µM in [5]; 6.66 µM in [6]. Moreover, the GI50 in [8] was 3.02 µM; in [9], 2.39 µM; in [10], 2.21 µM. Besides, the TGI is 13.1 µM in assay [1]; 9.6 µM in [2]; 12.6 µM in [3]; 13.3 µM in assay [4]; 16.7 µM in assay [5]; 20.1 µM in [6]. Further, the TGI in assay [8] amounted to 12.5 µM; in assay [9], 7.9 µM; in assay [10], 15.5 µM.
`C[C@H]1c2ccccc2CN1CCCOc1cc2c(cc1OCC1CC1)C1(CCCC1)C(N)=N2`: the GI50 in assay [1] is 1.18 µM; in [2], 1.08 µM; in assay [3] it was 2.59 µM; in [4], 1.79 µM; in assay [6], 5.65 µM; in [7], 0.999 µM. The figures for the GI50 in assay [8], in assay [9] and in assay [10] were 0.912 µM, 1.15 µM and 0.871 µM, respectively. The TGI turned out to be 3.46 µM in assay [1]; 3.82 µM in [2]; 9.18 µM in [3]; 7.65 µM in assay [4]; 11.8 µM in [6]; 2.13 µM in assay [7]. The TGI in assay [8] is 1.69 µM; in assay [9] it was 2.87 µM; in assay [10] it was 2.46 µM.
As for `O=NN(CCCl)C(=O)NC1CCC(=O)NC1=O` (stereo not given), the TGI in [1] was more than 1190 µM; in [2] it was 583 µM; in assay [4], 659 µM; in assay [5], 1030 µM; in assay [6], 934 µM; in assay [7], 975 µM. Moreover, the TGI is 273 µM in [8], 674 µM in [9] and 595 µM in assay [10].
